The values below come from patent US20210330566A1, “WATER-SOLUBILIZED MIXTURE OF GINSENOSIDE COMPOUND K AND METHOD OF WATERSOLUBILIZING GINSENOSIDE COMPOUND K” (VENN SKINCARE, INC., priority 2018, published 2021).

The nature of the data set: Solubility test of ginsenoside compound K depending on type of solvent. The conditions noted are these: 95% of solvent and 5% of ginsenoside compound K. It is filed as physicochemical. The method, then: The solubility of ginsenoside compound K was tested to be checked for representative polar and nonpolar solvents mainly used in cosmetics.

Structures are written as SMILES.

`CC(C)=CCC[C@](C)(O[C@@H]1O[C@H](CO)[C@@H](O)[C@H](O)[C@H]1O)[C@H]1CC[C@]2(C)[C@@H]1[C@H](O)C[C@@H]1[C@@]3(C)CC[C@H](O)C(C)(C)[C@@H]3CC[C@]12C` [ginsenoside compound K, 20-O-β-D-glucopyranosyl-20(S)-protopanaxadiol]: the “Solubility (60° C.)” value is, setting by setting: (solvent Ethanol) “Soluble”; (solvent Glycerin) “Insoluble”; (solvent Mineral Oil) “Insoluble”; (solvent Non-Polar Ester Oil) “Insoluble”; (solvent Polar Ester Oil) “Insoluble”; (solvent Silicone) “Insoluble”. Moreover, the “Solubility (60° C.)” value runs as follows: (solvent Surfactant) “Insoluble”; (solvent Vegetable Oil) “Insoluble”; (solvent Water) “Insoluble”. The “Solubility (room temperature)” value is, setting by setting: (solvent Ethanol) “Soluble”; (solvent Glycerin) “Insoluble”; (solvent Mineral Oil) “Insoluble”; (solvent Non-Polar Ester Oil) “Insoluble”; (solvent Polar Ester Oil) “Insoluble”; (solvent Silicone) “Insoluble”. The “Solubility (room temperature)” value (solvent Surfactant) is recorded as “Insoluble”, the “Solubility (room temperature)” value (solvent Vegetable Oil) was “Insoluble” and the “Solubility (room temperature)” value (solvent Water) was “Insoluble”.
